Data as given in US10874743B2, “IRAK degraders and uses thereof” (Kymera Therapeutics, Inc., priority 2017, dated 2020).

Molecular target: T1, IRAK4 (Homo sapiens, UniProt Q9NWZ3)
T1 sequence (Q9NWZ3 1-460): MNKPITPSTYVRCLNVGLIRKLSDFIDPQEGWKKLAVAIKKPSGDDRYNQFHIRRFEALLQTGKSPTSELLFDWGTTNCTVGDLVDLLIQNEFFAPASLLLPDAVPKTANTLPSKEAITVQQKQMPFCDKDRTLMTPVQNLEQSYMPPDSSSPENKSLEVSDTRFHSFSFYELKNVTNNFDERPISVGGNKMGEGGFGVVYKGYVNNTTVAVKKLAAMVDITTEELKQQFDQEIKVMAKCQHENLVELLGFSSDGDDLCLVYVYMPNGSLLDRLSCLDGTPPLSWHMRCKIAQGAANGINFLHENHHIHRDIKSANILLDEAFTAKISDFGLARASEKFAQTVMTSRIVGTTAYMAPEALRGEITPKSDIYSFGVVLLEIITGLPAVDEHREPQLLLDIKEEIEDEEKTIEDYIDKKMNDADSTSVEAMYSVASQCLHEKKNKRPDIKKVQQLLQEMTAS
Test: OCI-LY-10 degradation assay (western blot, % IRAK4 degraded after 4 hours)
Format: cell-based
Design: endogenous in cells; host or cells: OCI-LY10
Conditions: OCI-LY10 cells; for OCI-LY10 % IRAK4 Degradation (0.01 uM) / OCI-LY10 % IRAK4 Degradation (0.1 uM) / OCI-LY10 % IRAK4 Degradation (1 uM): 4 hours; for OCI-LY10 % IRAK4 Degradation (0.01 uM): 0.01 uM compound; for OCI-LY10 % IRAK4 Degradation (0.1 uM): 0.1 uM compound; for OCI-LY10 % IRAK4 Degradation (1 uM): 1 uM compound; for OCI-LY10 % IRAK4 Degradation: IRAK4 degraded after 4 hours, western blot
Protocol: Compounds were reconstituted in DMSO to make stock solutions at concentration of 60 mM. THP-1 and OCI-LY10 cells were maintained in RPMI-1640 medium containing 10% FBS, 0.5 μM 2-ME or 20% FBS, 55 μM 2-ME, and 1% L-Glutamine respectively.
Cells were seeded into 6-well plates with 5e6 cells per well. 200 μL of diluted compounds were added to cells to the final concentration of 0.003-10 μM. After 4 or 24 hour-incubation at 37° C., cells were collected into 2 mL Eppendorf tubes and centrifuged at 1,000 rpm for 5 min. The cell pellets were washed with 1×DPBS once and resuspended in 60 μL lysis buffer. The cells were lysed on ice for 10 min, then centrifuged at 14,000 rpm for 10 min at 4° C. and the supernatants were collected for western blots. For THP-1 cells, the lysis buffer contained 40 mM pH 7.4 HEPES, 140 mM NaCl, 2.5 mM EDTA, 1% NP-40, 0.1% SDS, and protease inhibitor cocktail (Roche, Cat. No. 05892791001). For OCI-LY10 cells, RIPAbuffer (Thermo Fisher, 89900) with Halt Protease and Phosphatase Inhibitor Cocktail (Thermo Fisher, 78446) was applied.
The protein concentration of cell lysates was quantified with Pierce™ BCA Protein Assay Kit (Pierce, 23227). Albumin standards at different concentrations were prepared, involving 2,000 ug/mL, 1,500 ug/mL, 1,000 ug/mL, 750 ug/mL, 500 ug/mL, 250 ug/mL, 125 ug/mL, and 25 ug/mL. BCA working reagents were prepared by mixing BCA reagent A with reagent B in 50:1 ratio. 200 μL of the BCA working reagents were added to 25 μL of BCA standard or cell lysates in microplate, and mixed thoroughly on a plate shaker for 30 seconds. After incubation at 37° C. for 30 min, the absorbance of samples at 562 nm were measured with EnVision Plate Reader.
Protein lysates were prepared in NuPAGE™ LDS sample buffer and NuPAGE™ sample reducing agent, and incubated at 95° C. for 5 min. For western blots, 20-25 μg of total proteins were resolved in 4-12% Bis-Tris gels (Introgen, WG1403A) or 10% Bis-Tris Midi gels (Invitrogen, WG1202BOX) running with 1×MOPS SDS running buffer (Invitrogen, NP0001) or 1×MES SDS running buffer (Invitrogen, NP0002). The proteins were transferred to low fluorescence PVDF membranes using the Trans-Blot Turbo Transfer System. Membranes were then blocked in Odyssey blocking buffer at RT for 1 h followed by primary incubation at 4° C. overnight. The primary antibodies were IRAK1 rabbit monoclonal antibody (CST, #4504S, 1:500), IRAK3 rabbit polyclonal antibody (CST, #4369, 1:500), IRAK4 rabbit polyclonal antibody (CST, #4363S, 1:1,000), MyD88 rabbit monoclonal antibody (Abcam, Ab133739, 1:2,000), j3-actin mouse monoclonal antibody (Sigma, A5441, 10,000), and Gapdh mouse monoclonal antibody (Millipore, MAB374, 1:5,000). Membranes were washed three times with 1×TBST, and then incubated with IR Dye 800 CW Goat anti-rabbit (Licor, #926-32211) and IR Dye 700 CW Goat anti-mouse (Licor, #926-68070) secondary antibodies in 1:10,000 dilution at RT for 1 h. The western blot images were obtained using Odyssey Imaging System.
OCI-LY-10 results at 4 hours. The letter codes indicate the percentage of IRAK4 degraded after 4 hours: A (>50% degradation), B (>20-50% degradation) and C (<20% degradation)
OCI-LY-10 results at 4 hours. The letter codes for % IRAK4 degradation indicate the percentage of IRAK4 degraded after 4 hours across three different concentrations: A (>50% degradation), B (>20-50% degradation) and C (<20% degradation).

OCI-LY10 % IRAK4 Degradation (0.01 uM)	OCI-LY10 % IRAK4 Degradation (0.1 uM)	OCI-LY10 % IRAK4 Degradation (1 uM)	OCI-LY10 % IRAK4 Degradation	SMILES
C (<20% degradation)	C (<20% degradation)	C (<20% degradation)	–	O=C1CCC(N2C(=O)c3cccc(CCCNCc4ccc(-n5cc(NC(=O)c6coc(-c7ccnc(NCC8CC8)c7)n6)c(C(F)F)n5)cc4)c3C2=O)C(=O)N1 (centres unmarked) [I-357]
–	–	–	C (<20% degradation)	N#Cc1cnc2c(cnn2-c2cc(NC3CC3)c(C(=O)N[C@H]3CC[C@H](COCCOCCOCCNc4cccc5c4C(=O)N(C4CCC(=O)NC4=O)C5=O)C3)cn2)c1 (some centres unmarked) [I-35]
–	–	–	C (<20% degradation)	CC(OCCOCCNc1cccc2c1C(=O)N(C1CCC(=O)NC1=O)C2=O)C(F)CNC(=O)c1cnc(Nc2ccc3cnccc3n2)cc1NC1CC1 (centres unmarked) [I-84]
C (<20% degradation)	A (>50% degradation)	A (>50% degradation)	–	CN(CCCCCOCCCc1cccc2c1C(=O)N(C1CCC(=O)NC1=O)C2=O)Cc1ccc(-n2cc(NC(=O)c3coc(-c4ccnc(NCC5CC5)c4)n3)c(C(N)=O)n2)cc1 (centres unmarked) [I-312]
C (<20% degradation)	B (>20-50% degradation)	A (>50% degradation)	–	NC(=O)c1nn(-c2ccc(C(=O)NCCOCCOCCOCCOCC#Cc3cccc4c3C(=O)N(C3CCC(=O)NC3=O)C4=O)cc2)cc1NC(=O)c1coc(-c2ccnc(NCC(F)(F)F)c2)n1 (centres unmarked) [I-236]
C (<20% degradation)	A (>50% degradation)	A (>50% degradation)	–	O=C1CCC(N2C(=O)c3ccc(NCCOCCOCCNCc4ccc(-n5cc(NC(=O)c6coc(-c7ccnc(NCC8CC8)c7)n6)c(C(F)F)n5)cc4)cc3C2=O)C(=O)N1 (centres unmarked) [I-354]
–	–	–	C (<20% degradation)	Cc1ncsc1-c1ccc(CNC(=O)C2C[C@@H](O)CN2C(=O)[C@@H](NC(=O)COCCOCCOCCOCCOC(C)(C)C(F)CNC(=O)c2cnc(-n3ncc4cc(C#N)cnc43)cc2NC2CC2)C(C)(C)C)cc1 (stereo partly drawn) [I-118, 6-(5-Cyanopyrazolo[3,4-b]pyridin-1-yl)-4-(cyclopropylamino)-N-[2-fluoro-3-[2-[2-[2-[2-[2-[[(1S)-1-[(4R)-4-hydroxy-2-[[4-(4-methylthiazol-5-yl)phenyl]methylcarbamoyl]pyrrolidine-1-carbonyl]-2,2-dimethyl-propyl]amino]-2-oxo-ethoxy]ethoxy]ethoxy]ethoxy]ethoxy]-3-methyl-butyl]pyridine-3-carboxamide]
C (<20% degradation)	C (<20% degradation)	C (<20% degradation)	–	O=C1CCC(N2C(=O)c3cccc(NCCOCCOCCN4Cc5ccc(-n6cc(NC(=O)c7coc(-c8ccnc(NCC9CC9)c8)n7)c(C(F)(F)F)n6)cc5C4)c3C2=O)C(=O)N1 (centres unmarked) [I-426, 2-[2-(Cyclopropylmethylamino)-4-pyridyl]-N-[1-[2-[2-[2-[2-[[2-(2,6-dioxo-3-piperidyl)-1,3-dioxo-isoindolin-4-yl]amino]ethoxy]ethoxy]ethyl]isoindolin-5-yl]-3-(trifluoromethyl)pyrazol-4-yl]oxazole-4-carboxamide]
C (<20% degradation)	C (<20% degradation)	B (>20-50% degradation)	–	O=C1CCC(N2C(=O)c3cccc(N4CCN(CCOCCOCCNCc5ccc(-n6cc(NC(=O)c7coc(-c8ccnc(NCC9CC9)c8)n7)c(C(F)F)n6)cc5)CC4)c3C2=O)C(=O)N1 (centres unmarked) [I-336]
C (<20% degradation)	C (<20% degradation)	C (<20% degradation)	–	CN(CCOCCCc1cccc2c1C(=O)N(C1CCC(=O)NC1=O)C2=O)Cc1ccc(-n2cc(NC(=O)c3coc(-c4ccncc4)n3)c(C(F)F)n2)cc1 (centres unmarked) [I-363]
C (<20% degradation)	B (>20-50% degradation)	B (>20-50% degradation)	–	NC(=O)c1nn(-c2ccc(CNCC3CCCCN3CCOCCNc3cccc4c3C(=O)N(C3CCC(=O)NC3=O)C4=O)cc2)cc1NC(=O)c1coc(-c2ccnc(NCC(F)(F)F)c2)n1 (centres unmarked) [I-306]
–	–	–	C (<20% degradation)	O=C1CCC(N2C(=O)c3cccc(NCCOCCOCCOCC(F)CNC(=O)c4cnc(Nc5ccc6ncsc6c5)cc4NC4CC4)c3C2=O)C(=O)N1 (centres unmarked) [I-54]
B (>20-50% degradation)	A (>50% degradation)	A (>50% degradation)	–	NC(=O)c1nn(-c2ccc(COCC3CCCCN3CCOCCNc3cccc4c3C(=O)N(C3CCC(=O)NC3=O)C4=O)cc2)cc1NC(=O)c1coc(-c2ccnc(NCC(F)(F)F)c2)n1 (centres unmarked) [I-303, N-[3-carbamoyl-1-[4-[[1-[2-[2-[[2-(2,6-dioxo-3-piperidyl)-1,3-dioxo-isoindolin-4-yl]amino]ethoxy]ethyl]-2-piperidyl]methoxymethyl]phenyl]pyrazol-4-yl]-2-[2-(2,2,2-trifluoroethylamino)-4-pyridyl]oxazole-4-carboxamide]
C (<20% degradation)	A (>50% degradation)	A (>50% degradation)	–	NC(=O)c1nn(-c2ccc(C(=O)NCCOCCOCCCc3cccc4c3C(=O)N(C3CCC(=O)NC3=O)C4=O)cc2)cc1NC(=O)c1coc(-c2ccnc(NCC(F)(F)F)c2)n1 (centres unmarked) [I-233]
–	–	–	C (<20% degradation)	N#Cc1cnc2c(cnn2-c2cc(NC3CC3)c(C(=O)N[C@H]3CC[C@H](COCCOCCOCCOCCOCCNc4cccc5c4C(=O)N(C4CCC(=O)NC4=O)C5=O)CC3)cn2)c1 (some centres unmarked) [I-33]
A (>50% degradation)	A (>50% degradation)	A (>50% degradation)	–	O=C1CCC(N2C(=O)c3cccc(NCCNCCOCCNC(=O)c4ccc(-n5cc(NC(=O)c6coc(-c7ccnc(NCC8CC8)c7)n6)c(C(F)(F)F)n5)cc4)c3C2=O)C(=O)N1 (centres unmarked) [I-222]
C (<20% degradation)	C (<20% degradation)	C (<20% degradation)	–	CN(CCCc1cccc2c1C(=O)N(C1CCC(=O)NC1=O)C2=O)Cc1ccc(-n2cc(NC(=O)c3coc(-c4ccncc4)n3)c(C(N)=O)n2)cc1 (centres unmarked) [I-356]
C (<20% degradation)	A (>50% degradation)	A (>50% degradation)	–	O=C1CCC(N2C(=O)c3ccc(NCc4cn(CCOCCOCCNCc5ccc(-n6cc(NC(=O)c7coc(-c8ccnc(NCC9CC9)c8)n7)c(C(F)F)n6)cc5)nn4)cc3C2=O)C(=O)N1 (centres unmarked) [I-341]
